The numbers were not newly measured in US20200245614A1, “AGROCHEMICAL EMULSIFIABLE CONCENTRATE COMPOSITION” (priority 2017, published 2020), which cites them from elsewhere.

Like-named read-outs stand apart in the source and are kept apart here.

The conditions of this data set: n-octanol/water.

With `CCCCOC(=O)OCCCC` [Composition B-3, Di-n-butyl carbonate], the LogPow value was 3.47.
Turning to `CC(C)COC(=O)CCCCC(=O)OCC(C)C` [Composition B-4, Diisobutyl adipate], the LogPow value is listed as 3.70.
As for `CCCCCCCCCCCC(=O)OC` [Composition B-5, Methyl laurate], the LogPow value is 5.41.
On to `COCCOCCO` [Composition C-1, Diethylene glycol monomethyl ether], for which the LogPow value was −1.18.
`OC1CCCCC1` [Composition C-4, Cyclohexanol]: the LogPow value was 1.2.
On to `O=C1CCCCC1` [Composition C-5, Cyclohexanone], for which the LogPow value is given as 0.86.
Turning to `CCCCOCCOCCO` [Composition C-6, Butyl diglycol], the LogPow value was 0.56.
Regarding `COCC(C)O` (stereo not shown) [Composition C-9, Propylene glycol monomethyl ether], the LogPow value was −0.342.
As to `CN1CCCC1=O` [Composition C-10, N-methyl-2-pyrrolidone], the LogPow value is listed as −0.38.
Take `COC(C)COC(C)CO` (stereo not shown) [Composition C-11, Dipropylene glycol methyl ether]: the LogPow value is reported as −0.46.
Take `CC1COC(=O)O1` (stereo not shown) [Composition C-12, Propylene carbonate]: the LogPow value is given as −0.5.
For the molecule `O=C1CCCO1` [Composition C-13, γ-Butyrolactone], the LogPow value is recorded as −0.566. In addition, the LogPow value (listed as gamma-butyl lactone) is given as −0.57.
As to `CCCCN1CCCC1=O` [Composition C-16, N-Butylpyrrolidone], the LogPow value was 1.27.
Take `COCCOCCOCCO` [Composition C-17, Triethylene glycol monomethyl ether]: the LogPow value is given as −1.12.
For the molecule `CC(O)COc1ccccc1` (stereo not shown) [Composition C-19, Phenoxypropanol], the LogPow value is reported as 1.51.
In the case of `OCCOCc1ccccc1` [Composition C-20, Benzyl glycol], the LogPow value is on record as 1.11.
In the case of `COC(=O)C(C)CCC(=O)N(C)C` (stereo not shown) [Composition C-21, 5-(Dimethylamino)-2-methyl-5-oxopentanoic acid methyl ester], the LogPow value is recorded as 0.39.
Turning to `CCCCCCCC/C=C\CCCCCCCC(=O)OC` [Composition C-22, Methyl oleate], the LogPow value was 7.45.
As to `CCCCCCCCO` [Composition C-24, Octanol], the LogPow value is recorded as 3.
In the case of `CCCCOC(C)=O` [Composition C-26, Butyl acetate], the LogPow value was 1.82.
On to `CCCCOCCOCCOCCCC` [Composition C-27, Dibutyl diglycol], for which the LogPow value is listed as 1.92.
On to `CCCCC(CC)COCCOCCO` (stereo not shown) [Composition C-28, 2-ethylhexyl diglycol], for which the LogPow value is given as 2.
In the case of `CC(C)=O` [acetone], the LogPow value is −0.24.
Consider `CO` [methanol], for which the LogPow value was −0.82.
As to `CCC(C)=O` [methyl ethyl ketone], the LogPow value is on record as 0.29.
Turning to `CCCCCO` [pentanol], the LogPow value was 1.51.
Turning to Xylene [Composition B-2], the LogPow value is 3.15.
